Results on five molecules are retold here after patent US20030138390A1, “Use of alcohol dehydrogenase inhibitors for cosmetic treatment of keratinous materials” (priority 2000, published 2003).

This assay addresses T1, enzyme alcohol dehydrogenase (Saccharomyces cerevisiae, UniProt P00330).
T1 construct: purchased Sigma Diagnostics 333-B
T1 sequence (P00330 1-348): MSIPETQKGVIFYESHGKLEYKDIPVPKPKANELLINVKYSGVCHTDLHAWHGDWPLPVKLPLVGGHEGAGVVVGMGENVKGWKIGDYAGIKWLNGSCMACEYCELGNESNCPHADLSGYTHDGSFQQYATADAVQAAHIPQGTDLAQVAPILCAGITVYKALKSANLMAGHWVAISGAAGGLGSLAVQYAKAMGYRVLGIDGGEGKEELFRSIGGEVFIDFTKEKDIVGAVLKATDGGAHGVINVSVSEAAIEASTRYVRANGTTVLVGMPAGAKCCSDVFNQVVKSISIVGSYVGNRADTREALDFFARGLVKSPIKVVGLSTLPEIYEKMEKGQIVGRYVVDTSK
The assay can be described thus: Test of inhibition of the activity of the enzyme alcohol dehydrogenase (Sigma Diagnostics kit ref. 333-B). Type of assay: biochemical. As to conditions: inhibitor 10^-3 M in the final mixture; 10 μl ethanol solution 0.08% w/v; incubated 10 minutes at room temperature; reference = 100. How it is done:
Test of Inhibition of the Activity of the Enzyme Alcohol Dehydrogenase
The inhibition of the activity of the enzyme alcohol dehydrogenase was determined using a Sigma Diagnostics kit (ref. 333-B).
3 ml of the Alcohol Reagent, 10 μl of ethanol solution (0.08% ethanol w/v ref. 330-20) and 10 μl of inhibitor solution in distilled water are incubated for 10 minutes at room temperature.
For each assay, a blank consisting of 3 ml of the Alcohol Reagent, 10 μl of distilled water and 10 μl of inhibitor solution in distilled water is prepared.
The inhibitors are diluted so as to be at a concentration of 10^−3 M in the final mixture.
After incubation of the mixture, 100 μl are taken up and read over a 10-minute interval at 340 nm. The readings are performed in 96-well UV microplates using a UV-visible multiwell spectrophotometer (Spectramax Plus—Molecular Devices) against the blank.
The inhibition results are expressed as a percentage of absorbance at 340 nm relative to a reference (no inhibitor in the mixture): […]
In the case of `c1c[nH]cn1` [Imidazole], the “percentage of absorbance at 340 nm relative to a reference (no inhibitor in the mixture)” value is given as 32%.
Consider `c1cn[nH]c1` [Pyrazole], for which the “percentage of absorbance at 340 nm relative to a reference (no inhibitor in the mixture)” value was 16%.
Next, `OCC(Cl)(Cl)Cl` [2,2,2-Trichloroethanol]: -12%; `Cc1cn[nH]c1` [4-Methylpyrazole]: 35%.
Take `CCn1nc(C)c(N)c1N` [2-Ethyl-5-methyl-2H-3,4-diaminopyracole]: the “percentage of absorbance at 340 nm relative to a reference (no inhibitor in the mixture)” value was determined as 31%.
